How the values were obtained:
[1] = in children; cited from earlier work

solubility (physchem; pH 1, simulated gastric fluid) | solubility (physchem; pH 4.7, aqueous buffer) | solubility (physchem; pH 4.84, aqueous buffer) | solubility (physchem; pH 5.87, aqueous buffer) | solubility (physchem; pH 6.17, aqueous buffer) | solubility (physchem; pH 6.7, aqueous buffer) | SMILES | elimination half-life [1]
1 mg/mL | 2 mg/mL | 3.4 mg/mL | 21 mg/mL | 36 mg/mL | 200 mg/mL | CCCC(CCC)C(=O)O [Divalproex sodium, sodium hydrogen divalproate] | –
– | – | – | – | – | – | CCCC(CCC)C(=O)O [valproic acid, 2-propylpentanoic acid] | four and fourteen

Reference: patent EP1146864B1, “PH INDEPENDENT EXTENDED RELEASE PHARMACEUTICAL FORMULATION” (ABBOTT LABORATORIES, priority 1999, dated 2000)
